From patent US20240251792A1, “WEED CONTROL METHOD” (SYNGENTA CROP PROTECTION AG, priority 2021, published 2024)
Like-named read-outs stand apart in the source and are kept apart here.

Key:
Format in all cases: in vivo
AMARE = test: Pre-emergence biological efficacy (Table 3); settings: 1000 g/ha, after 13 days; for pest or weed control at 1000 g/ha: Amaranthus retroflexus, 312 h, read-out: evaluation (100=total damage to plant; 0=no damage to plant)
Protocol: (§1) Seeds of weeds and/or crops were sown in standard soil in pots. After cultivation for one day under controlled conditions in a glasshouse (at 24/19° C., day/night; 16 hours light), the plants were sprayed with an aqueous spray solution derived from the formulation of the technical active ingredient in a small amount of acetone and a special solvent and emulsifier mixture referred to as AMA (11.12% Emulsogen EL360 TM+44.44% N-methylpyrrolidone+44.44% Dowanol DPM glycol ether), to create a 50 g/l solution which was then diluted using 0.2% Genapol X080 as diluent to give the desired final dose of test compound.
(§2) The test plants were then grown under controlled conditions in the glasshouse (at 24/18° C., day/night; 15 hours light; 50% humidity) and watered twice daily. After 13 days the test was evaluated (100=total damage to plant; 0=no damage to plant).

ZEAMX = test: Pre-emergence biological efficacy (Table 3); settings: 1000 g/ha, after 13 days; for plant injury at 1000 g/ha: 312 h, read-out: evaluation (100=total damage to plant; 0=no damage to plant)
Protocol: as §1, §2

IPOHE = test: Pre-emergence biological efficacy (Table 3); settings: 1000 g/ha, after 13 days; for pest or weed control at 1000 g/ha: Ipomoea hederacea, 312 h, read-out: evaluation (100=total damage to plant; 0=no damage to plant)
Protocol: as §1, §2

STEME = test: Pre-emergence biological efficacy (Table 3); settings: after 13 days; for pest or weed control at 1000 g/ha: 312 h, read-out: evaluation (100=total damage to plant; 0=no damage to plant)
Protocol: as §1, §2

ECHCG = test: Pre-emergence biological efficacy (Table 3); settings: Echinochloa crus-galli, 312 h, 1000 g/ha, after 13 days, read-out: evaluation (100=total damage to plant; 0=no damage to plant)
Protocol: as §1, §2

ABUTH = test: Pre-emergence biological efficacy (Table 3); settings: after 13 days; for pest or weed control at 1000 g/ha: Abutilon theophrasti, 312 h, read-out: evaluation (100=total damage to plant; 0=no damage to plant)
Protocol: as §1, §2

weeds and/or crops = test: Post-emergence biological efficacy (Table 4); settings: 1000 g/ha, evaluated after 13 days; for pest or weed control at 1000 g/ha: 312 h
Protocol: as §1, with “14 days” for “one day”, “F50” for “AMA”
as §2

[1] = STEME, read-out: damage to plant STEME (100=total damage; 0=no damage)
[2] = ZEAMX, read-out: damage to plant ZEAMX (100=total damage; 0=no damage)
[3] = Abutilon theophrasti, ABUTH, read-out: damage to plant ABUTH (100=total damage; 0=no damage)
[4] = Amaranthus retroflexus, AMARE, read-out: damage to plant AMARE (100=total damage; 0=no damage)
[5] = Ipomoea hederacea, IPOHE, read-out: damage to plant IPOHE (100=total damage; 0=no damage)
[6] = Echinochloa crus-galli, ECHCG, read-out: damage to plant ECHCG (100=total damage; 0=no damage)

SMILES	pest or weed control at 1000 g/ha (AMARE) [%]	plant injury at 1000 g/ha (ZEAMX) [%]	pest or weed control at 1000 g/ha (IPOHE) [%]	pest or weed control at 1000 g/ha (STEME) [%]	pest or weed control at 1000 g/ha (ECHCG) [%]	pest or weed control at 1000 g/ha (ABUTH) [%]	pest or weed control at 1000 g/ha (weeds and/or crops; [1]) [%]	pest or weed control at 1000 g/ha (weeds and/or crops; [2]) [%]	pest or weed control at 1000 g/ha (weeds and/or crops; [3]) [%]	pest or weed control at 1000 g/ha (weeds and/or crops; [4]) [%]	pest or weed control at 1000 g/ha (weeds and/or crops; [5]) [%]	pest or weed control at 1000 g/ha (weeds and/or crops; [6]) [%]	further results
COc1ccc(Cl)c(C(F)(F)C(=O)O)c1 [Compound 1-62, 2-(2-Chloro-5-methoxyphenyl)-2,2-difluoroacetic acid]	80	20	20	80	30	50	60	20	20	60	70		
Nc1ccc(Cl)c(C(F)(F)C(=O)O)c1 [Compound 1-63, 2-(5-Amino-2-chloro-phenyl)-2,2-difluoro-acetic acid]	0	0	0	0	0	0	0	0	10	20	20	10	
Nc1c(Cl)cc(Cl)c(Cl)c1C(F)(F)C(=O)O [Compound 1-81, 2-(2-Amino-3,5,6-trichloro-phenyl)-2,2-difluoro-acetic acid]	30	0	10	20	0	20	50	0	20	50	50	10	
COc1cccc(C(F)(F)C(=O)O)c1Cl [Compound 1-209, 2-(2-Chloro-3-methoxyphenyl)-2,2-difluoroacetic acid]	70	0	80	60	0	60	90	10		80	80	10	
CSc1cccc(C(F)(F)C(=O)O)c1Cl [Compound 1-220, 2-(2-Chloro-3-methylsulfanyl-phenyl)-2,2-difluoro-acetic acid]	50	10	70	50	0	80	70	10		70	70	0	
Nc1cc(Cl)cc(C(F)(F)C(=O)O)c1Cl [Compound 1-235, 2-(3-Amino-2,5-dichlorophenyl)-2,2-difluoroacetic acid]	40	0	20	30	10	30	50	20		70	30	20	
Nc1ccc(Cl)c(C(F)(F)C(=O)O)c1Cl [Compound 1-236, 2-(3-Amino-2,6-dichloro-phenyl)-2,2-difluoro-acetic acid]	20		0	0	0	0	10	10	0	30	30	0	
O=C(O)C(F)(F)c1cc(Cl)cc([N+](=O)[O-])c1Cl [Compound 1-238, 2-(2,5-Dichloro-3-nitrophenyl)-2,2-difluoroaceticacid]	0	0	0	0	0	0	40	0	0	30	0	0	
Nc1c(Cl)cccc1C(F)(F)C(=O)O [Compound 1-252, 2-(2-Amino-3-chloro-phenyl)-2,2-difluoro-acetic acid]	40	0	50	10	0	90	90	10	80	20	70	0	
CCOC(=O)C(F)(F)c1c(F)ccc(F)c1O [Compound 3-297, Ethyl 2-(3,6-difluoro-2-hydroxyphenyl)-2,2-difluoroacetate]	0	0	0	0		0	0	20	10	10	10		
Nc1ccc(Cl)cc1C(F)(F)C(=O)[O-].[Li+] [Compound 5-251, Lithium;2-(2-amino-5-chloro-phenyl)-2,2-difluoro-acetate]													evaluation (100=total damage to plant; 0=no damage to plant) (AMARE): 20; evaluation (100=total damage to plant; 0=no damage to plant) (ZEAMX): 0; evaluation (100=total damage to plant; 0=no damage to plant) (IPOHE): 0; evaluation (100=total damage to plant; 0=no damage to plant) (STEME; 1000 g/ha): 10; evaluation (100=total damage to plant; 0=no damage to plant) (ABUTH; 1000 g/ha): 10; damage to plant ABUTH (100=total damage; 0=no damage) (weeds and/or crops; ABUTH): 20; damage to plant AMARE (100=total damage; 0=no damage) (weeds and/or crops; AMARE): 40; damage to plant ECHCG (100=total damage; 0=no damage) (weeds and/or crops; ECHCG): 0; damage to plant IPOHE (100=total damage; 0=no damage) (weeds and/or crops; IPOHE): 20; damage to plant STEME (100=total damage; 0=no damage) (weeds and/or crops; STEME): 20; damage to plant ZEAMX (100=total damage; 0=no damage) (weeds and/or crops; ZEAMX): 0
COc1c(Cl)ccc(F)c1C(F)(F)C(=O)O [Compound 7-325, 2-(3-Chloro-6-fluoro-2-methoxyphenyl)-2,2-difluoroacetic acid]	50	10	50	30		20	60	20	50	60	50		
